Measurements published in publication PMC5778463 (Nucleic Acids Research, 2017).
Values joined by “and” are separate entries in the source; they are usually repeats but may differ in a detail not shown here. Equal entries are not always repeated.

Experiments:
[1] = molecular target: B/Memphis cap-midlink double domain (Influenza B virus, UniProt Q5V8X3); assay: biochemical; type: binding, influenza B/Memphis/13/03
[2] = tested on: isolated influenza A PB2 cap-binding domain; conditions: cited from earlier work
[3] = tested on: influenza B strains; conditions: cited from earlier work

Chain of B/Memphis cap-midlink double domain (Q5V8X3 249-540 limits assumed): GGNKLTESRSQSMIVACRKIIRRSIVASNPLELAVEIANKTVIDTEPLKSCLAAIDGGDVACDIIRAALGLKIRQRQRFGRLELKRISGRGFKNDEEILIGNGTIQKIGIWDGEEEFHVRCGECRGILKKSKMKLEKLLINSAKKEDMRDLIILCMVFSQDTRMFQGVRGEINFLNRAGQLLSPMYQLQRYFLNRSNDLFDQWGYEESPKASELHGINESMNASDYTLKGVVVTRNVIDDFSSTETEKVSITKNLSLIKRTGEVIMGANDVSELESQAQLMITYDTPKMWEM

O=C(O)[C@H]1C2CCC(CC2)[C@@H]1Nc1nc(-c2c[nH]c3ncc(F)cc23)ncc1F [VX-787]
Kd [1]: 1200 nM
times tighter binding than m^7GTP [2]: ~60 times
Kd ([2]; read-out: affinity to cap-binding domain alone): ~24 nM and 24 nM
potency against influenza B strains [3]: no potency
